Results published in patent publication US7998989B2, “2-Imino-1,3-thiazoline-based compounds and T-type calcium channel inhibitors containing the same” (Korea Institute of Science and Technology, priority 2007, dated 2011).
Read-outs that look alike come from different tables or passages of the source.

Experiments:
[1] = biological target: T1, α1G T-type calcium channel (Homo sapiens, UniProt O43497); assay: Assay for % inhibiting activity against T-type calcium channel using FDSS6000 (fluo-3 calcium imaging, KCl activation); type: cell-based
T1 construct: host or cells: HEK293
T1 sequence (O43497 whole entry): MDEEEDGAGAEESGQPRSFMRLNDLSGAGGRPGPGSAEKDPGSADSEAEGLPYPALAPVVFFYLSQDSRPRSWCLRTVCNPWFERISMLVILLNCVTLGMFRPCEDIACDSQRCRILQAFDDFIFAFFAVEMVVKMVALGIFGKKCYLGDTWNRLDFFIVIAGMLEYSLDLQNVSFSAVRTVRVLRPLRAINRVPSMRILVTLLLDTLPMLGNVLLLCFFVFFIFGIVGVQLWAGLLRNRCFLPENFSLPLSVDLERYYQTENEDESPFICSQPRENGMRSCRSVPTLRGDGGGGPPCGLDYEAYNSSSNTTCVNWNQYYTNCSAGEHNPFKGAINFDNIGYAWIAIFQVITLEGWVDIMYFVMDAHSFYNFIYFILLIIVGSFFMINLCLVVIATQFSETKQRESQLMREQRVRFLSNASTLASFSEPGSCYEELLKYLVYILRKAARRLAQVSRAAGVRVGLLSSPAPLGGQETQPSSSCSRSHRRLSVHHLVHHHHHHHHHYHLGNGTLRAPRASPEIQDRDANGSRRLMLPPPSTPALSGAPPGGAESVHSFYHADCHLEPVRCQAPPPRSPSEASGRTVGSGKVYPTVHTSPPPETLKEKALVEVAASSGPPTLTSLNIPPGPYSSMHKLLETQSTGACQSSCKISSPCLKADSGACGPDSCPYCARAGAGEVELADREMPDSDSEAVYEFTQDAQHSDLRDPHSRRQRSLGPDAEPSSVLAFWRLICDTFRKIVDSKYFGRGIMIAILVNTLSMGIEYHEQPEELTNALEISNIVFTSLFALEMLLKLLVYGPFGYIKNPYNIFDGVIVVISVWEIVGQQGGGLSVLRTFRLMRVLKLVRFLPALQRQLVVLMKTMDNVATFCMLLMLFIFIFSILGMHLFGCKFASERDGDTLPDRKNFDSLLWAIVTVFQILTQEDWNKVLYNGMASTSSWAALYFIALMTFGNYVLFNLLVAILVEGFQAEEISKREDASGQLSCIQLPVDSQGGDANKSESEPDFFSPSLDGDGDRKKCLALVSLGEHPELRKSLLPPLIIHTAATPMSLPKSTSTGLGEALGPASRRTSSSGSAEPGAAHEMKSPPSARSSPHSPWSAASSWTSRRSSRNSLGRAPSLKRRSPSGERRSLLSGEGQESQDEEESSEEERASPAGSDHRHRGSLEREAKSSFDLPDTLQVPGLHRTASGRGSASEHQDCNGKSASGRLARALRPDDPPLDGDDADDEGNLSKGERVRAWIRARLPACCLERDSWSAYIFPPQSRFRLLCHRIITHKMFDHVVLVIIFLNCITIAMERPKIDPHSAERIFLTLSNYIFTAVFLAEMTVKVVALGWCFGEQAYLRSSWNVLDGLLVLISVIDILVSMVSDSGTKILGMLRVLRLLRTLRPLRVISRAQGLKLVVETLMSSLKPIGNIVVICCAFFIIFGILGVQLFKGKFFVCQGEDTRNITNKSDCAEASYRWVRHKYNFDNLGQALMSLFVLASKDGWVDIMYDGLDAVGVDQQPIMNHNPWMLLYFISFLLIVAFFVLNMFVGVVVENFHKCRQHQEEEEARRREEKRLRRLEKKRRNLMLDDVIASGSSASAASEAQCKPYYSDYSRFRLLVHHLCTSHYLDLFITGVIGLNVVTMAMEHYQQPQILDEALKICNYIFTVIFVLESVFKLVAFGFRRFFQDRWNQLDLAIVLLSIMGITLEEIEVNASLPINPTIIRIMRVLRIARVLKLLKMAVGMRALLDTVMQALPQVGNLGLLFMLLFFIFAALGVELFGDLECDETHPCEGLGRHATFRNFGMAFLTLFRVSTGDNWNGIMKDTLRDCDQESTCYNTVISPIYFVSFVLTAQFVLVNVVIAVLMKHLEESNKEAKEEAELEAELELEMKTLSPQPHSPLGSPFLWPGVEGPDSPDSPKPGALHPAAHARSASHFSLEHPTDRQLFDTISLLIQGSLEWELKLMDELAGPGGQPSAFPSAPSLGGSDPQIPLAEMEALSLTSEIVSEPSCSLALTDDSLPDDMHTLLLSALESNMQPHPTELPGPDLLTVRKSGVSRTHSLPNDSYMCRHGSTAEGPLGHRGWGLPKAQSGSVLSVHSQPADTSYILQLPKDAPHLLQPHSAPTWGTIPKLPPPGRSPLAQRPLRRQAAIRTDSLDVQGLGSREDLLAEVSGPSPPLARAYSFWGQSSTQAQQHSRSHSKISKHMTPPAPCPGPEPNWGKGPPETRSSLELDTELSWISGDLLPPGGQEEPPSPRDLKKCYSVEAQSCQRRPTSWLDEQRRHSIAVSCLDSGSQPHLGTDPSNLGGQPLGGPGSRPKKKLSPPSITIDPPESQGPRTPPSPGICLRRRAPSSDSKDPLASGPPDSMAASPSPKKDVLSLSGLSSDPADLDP
Method in brief: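 HEK293 cells stably expressing α1G and Kir2.1 loaded with 5 μM fluo-3/AM, then in HEPES buffer (pH 7.4) with 10 mM CaCl2. Compound applied 75 s before 75 mM KCl; intracellular Ca2+ read as […] area, % inhibition relative to untreated control.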

[2] = HEK293, 10 μM, HEK293 cells stably expressing α1G T-type calcium channel and Kir2.1, compounds of the examples, read-out: FDSS (% inhibition)/10uM
[3] = 10 μM, FDSS (% inhibition), comparative compounds where R6 is a phenyl group, read-out: FDSS

## COc1ccc(NC(=O)CC2CSC(=NC3CCCCC3)N2C)cc1OC.Cl (stereo not shown) [KHG24090, (2-cyclohexylimino-3-methyl-1,3-thiazolidine-4-yl)-N-(3,4-dimethoxyphenyl)-acetamide hydrochloride]
[1]; [2]
  inhibition at 10 µM: 32.1%
other
  melting point: 233 to 234 °C

## CCCCN1C(=NC23CC4CC(CC(C4)C2)C3)SCC1CC(=O)Nc1ccc(Cl)cc1F.Cl (stereo not shown) [KHG24783, [2-(1-adamantylimino)-3-(n-butyl)-1,3-thiazolidine-4-yl]-N-(4-chloro-2-fluorophenyl)-acetamide hydrochloride]
[1]; [2]
  inhibition at 10 µM: 54.4%
other
  melting point: 161 °C

## CN1C(=Nc2ccc(OC(F)(F)F)cc2)SCC1CC(=O)Nc1ccc(Cl)cc1F.Cl (stereo not shown) [KHG23070, [2-(4-trifluoromethoxyphenylimino)-3-methyl-1,3-thiazolidine-4-yl]-N-(4-chloro-2-fluorophenyl)-acetamide hydrochloride]
[1]; [3]
  inhibition at 10 µM: 7.44%
other
  melting point: 236 to 237 °C

## CC(C)N1C(=NC23CC4CC(CC(C4)C2)C3)SCC1CC(=O)Nc1cc(C(F)(F)F)cc(C(F)(F)F)c1.Cl (stereo not shown) [KHG24828, [2-(1-adamantylimino)-3-isopropyl-1,3-thiazolidine-4-yl]-N-(3,5-ditrifluoromethylphenyl)-acetamide hydrochloride]
[1]; [2]
  inhibition at 10 µM: 35.4%
other
  melting point: 233 °C

## CN1C(=NC2CCCCCC2)SCC1C(=O)NCc1cccc(Br)c1 (stereo not shown) [KHG24669, (2-cycloheptylimino-3-methyl-1,3-thiazolidine-4-yl)-N-(3-bromobenzyl)-carboxamide]
[1]; 10 μM, HEK293 cells stably expressing α1G T-type calcium channel and Kir2.1, compounds of the examples
  FDSS (% inhibition)/10uM: 36.57%
other
  melting point: 133 °C

## CC1SC(=NC2CCCCC2)N(C)C1CC(=O)Nc1cccc(F)c1.Cl (stereo not shown) [KHG24636, (2-cyclohexylimino-3,5-dimethyl-1,3-thiazolidine-4-yl)-N-(3-fluorophenyl)-acetamide hydrochloride]
[1]; [2]
  inhibition at 10 µM: 35.2%
other
  melting point: 257 to 259 °C

## CN1C(=NC2CCCC2)SCC1CC(=O)Nc1ccc(Oc2ccccc2)cc1.Cl (stereo not shown) [KHG24099, (2-cyclopentylimino-3-methyl-1,3-thiazolidine-4-yl)-N-(4-phenoxyphenyl)-acetamide hydrochloride]
[1]; [2]
  inhibition at 10 µM: 58.2%
other
  melting point: 230 to 230.5 °C

## CCCCN1C(=NC2CCCCC2)SCC1CC(=O)Nc1ccc(Cl)cc1.Cl (stereo not shown) [KHG24262, [2-cyclohexylimino-3-(n-butyl)-1,3-thiazolidine-4-yl]-N-(4-chlorophenyl)-acetamide hydrochloride]
[1]; [2]
  inhibition at 10 µM: 53%
other
  melting point: 194.3 °C

## CN1C(=NC2CCCCCC2)SCC1C(=O)Nc1ccccc1Br.Cl (stereo not shown) [KHG24634, (2-cycloheptylimino-3-methyl-1,3-thiazolidine-4-yl)-N-(2-bromophenyl)-carboxamide hydrochloride]
[1]; [2]
  inhibition at 10 µM: 46.9%
other
  melting point: 232.8 °C

## CC(C)Oc1cc(N=C2SCC(CC(=O)Nc3ccc(C(C)C)cc3)N2C)c(F)cc1Cl.Cl (stereo not shown) [KHG21944, [2-(4-chloro-5-isopropoxy-2-fluorophenylimino)-3-methyl-1,3-thiazolidine-4-yl]-N-(4-isopropylphenyl)-acetamide hydrochloride]
[1]; [3]
  inhibition at 10 µM: 5.89%
other
  melting point: 190 to 194 °C

## CCCCN1C(=NC23CC4CC(CC(C4)C2)C3)SCC1CC(=O)Nc1ccc(CC)cc1.Cl (stereo not shown) [KHG24782, [2-(1-adamantylimino)-3-(n-butyl)-1,3-thiazolidine-4-yl]-N-(4-ethylphenyl)-acetamide hydrochloride]
[1]; [2]
  inhibition at 10 µM: 30.6%
other
  melting point: 156 °C

## CCN1C(=NC2CCCCC2)SCC1CC(=O)Nc1cc([N+](=O)[O-])ccc1F.Cl (stereo not shown) [KHG24278, [2-cyclohexylimino-3-ethyl-1,3-thiazolidine-4-yl]-N-(2-fluoro-5-nitrophenyl)-acetamide hydrochloride]
[1]; [2]
  inhibition at 10 µM: 53.8%
other
  melting point: 177 °C

## CC1SC(=NC2CCCCCC2)N(C)C1CC(=O)Nc1cc(C(F)(F)F)cc(C(F)(F)F)c1.Cl (stereo not shown) [KHG24646, (2-cycloheptylimino-3,5-dimethyl-1,3-thiazolidine-4-yl)-N-(3,5-ditrifluoromethylphenyl)-acetamide hydrochloride]
[1]; [2]
  inhibition at 10 µM: 58.1%
other
  melting point: 217 to 219 °C

## CN1C(=NC2CCCCC2)SCC1CC(=O)NCc1ccc(F)cc1.Cl (stereo not shown) [KHG24112, (2-cyclohexylimino-3-methyl-1,3-thiazolidine-4-yl)-N-(4-fluorobenzyl)-acetamide hydrochloride]
[1]; [2]
  inhibition at 10 µM: 30.3%
other
  melting point: 200 to 201 °C

## CCCCc1ccc(NC(=O)CC2CSC(=NC3CCCCC3)N2C2CC2)cc1.Cl (stereo not shown) [KHG24270, [2-cyclohexylimino-3-cyclopropyl-1,3-thiazolidine-4-yl]-N-(4-n-butylphenyl)-acetamide hydrochloride]
[1]; [2]
  inhibition at 10 µM: 62.6%
other
  melting point: 195.6 °C

## CCCN1C(=NC2CCCCC2)SCC1CC(=O)Nc1ccc(CC)cc1.Cl (stereo not shown) [KHG24298, [2-cyclohexylimino-3-(n-propyl)-1,3-thiazolidine-4-yl]-N-(4-ethylphenyl)-acetamide hydrochloride]
[1]; [2]
  inhibition at 10 µM: 60.4%
other
  melting point: 221.4 °C

## CC1SC(=NC2CCCCCC2)N(C)C1CC(=O)Nc1cc(Cl)cc(Cl)c1.Cl (stereo not shown) [KHG24644, (2-cycloheptylimino-3,5-dimethyl-1,3-thiazolidine-4-yl)-N-(3,5-dichlorophenyl)-acetamide hydrochloride]
[1]; [2]
  inhibition at 10 µM: 53.4%
other
  melting point: 248 to 250 °C

## Cl.O=C(CC1CSC(=NC2CCCCC2)N1Cc1ccccc1)Nc1ccc(C(F)(F)F)cc1 (stereo not shown) [KHG24407, (2-cyclohexylimino-3-benzyl-1,3-thiazolidine-4-yl)-N-(4-trifluoromethylphenyl)-acetamide hydrochloride]
[1]; [2]
  inhibition at 10 µM: 48.7%
other
  melting point: 238.5 °C

## CCCN1C(=NC2CCCCC2)SCC1CC(=O)Nc1ccc(C(F)(F)F)cc1.Cl (stereo not shown) [KHG24404, [2-cyclohexylimino-3-(n-propyl)-1,3-thiazolidine-4-yl]-N-(4-trifluoromethylphenyl)-acetamide hydrochloride]
[1]; [2]
  inhibition at 10 µM: 64.7%
other
  melting point: 173.6 to 174.8 °C

## CC1SC(=NC2CCCCC2)N(C)C1CC(=O)Nc1ccc(OC(F)(F)F)cc1.Cl (stereo not shown) [KHG24524, (2-cyclohexylimino-3,5-dimethyl-1,3-thiazolidine-4-yl)-N-(4-trifluoromethoxyphenyl)-acetamide hydrochloride]
[1]; [2]
  inhibition at 10 µM: 41.3%
other
  melting point: 178 to 180 °C

## CN1C(=NCCc2ccccc2)SCC1CC(=O)Nc1cc([N+](=O)[O-])ccc1F.Cl (stereo not shown) [KHG24232, (2-phenethylimino-3-methyl-1,3-thiazolidine-4-yl)-N-(2-fluoro-5-nitrophenyl)-acetamide hydrochloride]
[1]; [2]
  inhibition at 10 µM: 33.7%
other
  melting point: 196.4 °C

## CCc1ccc(NC(=O)CC2CSC(=NC3CCCCC3)N2Cc2ccccc2)cc1.Cl (stereo not shown) [KHG24306, (2-cyclohexylimino-3-benzyl-1,3-thiazolidine-4-yl)-N-(4-ethylphenyl)-acetamide hydrochloride]
[1]; [2]
  inhibition at 10 µM: 53.2%
other
  melting point: 146.4 °C

## CCCN1C(=NC23CC4CC(CC(C4)C2)C3)SCC1CC(=O)Nc1ccc(Oc2ccccc2)cc1.Cl (stereo not shown) [KHG24815, [2-(1-adamantylimino)-3-n-propyl-1,3-thiazolidine-4-yl]-N-(4-phenoxyphenyl)-acetamide hydrochloride]
[1]; [2]
  inhibition at 10 µM: 32.7%
other
  melting point: 135 °C
